# Results: patent US7662769B2, “Glycosyltransferase GnT-V having neovascularization action” (Suntory Holdings Limited, priority 2002, dated 2010)
# “Also recorded” adds a separate entry of the source. Where no end group is shown, it is not given here.
# Tests used:
# chicken microvessels = assay: CAM (chorioallantoic membrane) assay of neovascularization; format: in vivo; settings: ex-vivo, chicken embryo CAM
# Description: Acceleration of neovascularization by a GnT-V transformant was confirmed by a CAM (chorioallantoic membrane) assay using an embryo of a chicken fertilized egg. The CAM assay was conducted by a method of Yen et al. (Yen, L., et al., Oncogene 19, 3460-3469 (2000)) and a method of Bernardini (Bernardini, G., et al., Blood 96, 4039-4045 (2000)), both being slightly modified. CAM 8 days after fertilization of white Leghorn was used, and 1×10^5 cells thereof were inoculated on a collagen sponge and maintained for 4 hours. A 5 mm silicon ring was placed on CAM on the collagen sponge and maintained for 48 hours.
# Induction of neovascularization by GnT-V was confirmed also by other in vitro neovascularization assays such as a capillary-like tube formation assay (Ashoton, A. W., et al., J. Biol. Chem. 274, 35562-35570 (1999)) and a migration assay (Zeng, H., et al., J. Biol. Chem. 276, 3271-3279 (2001)) using HUVEC.
# HSPG on HUVEC = assay: release of FGF-2 from HSPG on HUVEC (FGF-2 ELISA of supernatant); format: cell-based, human; settings: 4° C., 2 hours; FIG. 5
# From the text: A basic peptide (KRKRKK peptide) composed of Lys-Arg-Lys-Arg-Lys-Lys (SEQ ID NO: 11) which is an amino acid sequence of from 264 to 269 and a non-basic control peptide (FSGGPL peptide) composed of Phe-Ser-Gly-Gly-Pro-Leu (SEQ ID NO: 12) which is an amino acid sequence of from 291 to 296, of GnT-V, were synthesized, and an influence of these peptides on growth of HUVEC was examined. The peptide was synthesized by a peptide synthesizer A432 (manufactured by Applied Biosystems), and purified by reverse phase HPLC, then, its molecular weight and degree of purification were confirmed by MALDI TOF-MS (Voyager-DE (registered trademark) RP; manufactured by PerSeptive Biosystems). The concentration of FGF-2 was measured by a known method (Barillari, G., et al., American J. Patho. 152, 1161-1166 (1998)). […] After centrifugation at 4° C. and 3000 rpm for 5 minutes, the supernatant was collected, the concentration of FGF-2 in the supernatant was measured in an FGF-2 ELISA system (manufactured by R&D Systems) according to a manual of this system.
# As described above, various deficient variants of GnT-V and synthetic peptides were added at 4° C. to culture solution of HUVEC, and the amount of FGF-2 released from HSPG on HUVEC was measured.
# HUVEC = HUVEC differentiation and growth, incorporation of [3H]-thymidine (DNA synthesis); format: cell-based, human; settings: [3H]-thymidine incorporation; FIG. 2, 3B, 6
# Description: For in vitro evaluation of induction of neovascularization by a GnT-V transformant, the amount of synthesis of DNA of human umbilical vein […] cells (HUVEC) after stimulation with culture solution of a GnT-V transformant was measured by a method of Soker et al.(Soker, S., et al., J. Biol. Chem. 272, 31582-31588 (1997)). HUVEC was inoculated on a 96-well plate coated with type I collagen at a rate of 2×10^3 cells per well, and 24 hours later, the medium was substituted with an MCDB131 medium (not containing FBS and FGF-2) containing 0.1% […] and a starved condition was maintained for 24 hours. The medium was substituted with culture solution of the WiDr cell transformed with the glycosyltransferase gene described in Example 1, and HUVEC was stimulated for 24 hours. HUVEC was maintained for 8 hours with [^3H]-thymidine (1 μCi/ml), and incorporation of [^3H]-thymidine into HUVEC was analyzed by MicroBeta-Counter (manufactured by Wallac) to measure the amount of synthesis of DNA. The result was shown as the mean value of assay results of 6 wells, and the standard deviation was measured. All experiments were repeated at least three times, and the same results were obtained. As apparent from FIG. 1, DNA synthesis of HUVEC stimulated with the culture solution of WiDr cells transformed with a GnT-V gene increased, however, the same effect was not observed in culture solution of WiDr cells transformed with other glycosyltransferase genes.
# Purification of a neovascularization factor present in culture solution of WiDr cells transformed with a GnT-V gene was conducted using various column chromatographies. The neovascularization activity of each fraction was evaluated by differentiation and growth of HUVEC described in Example 3. In heparin affinity chromatography, a fraction of high growth activity of HUVEC was eluted with 0.3 M NaCl. Since known growth factors such as FGF-1, FGF-2, VEGF, placenta-induced growth factor (PIGF) and hepatocyte growth factor (HGF) and the like are eluted with 0.8 to 1.5 M NaCl (Hauser, S. & Weich H. A., Growth Factor 9, 259-268 (1993). Gohda, E., et al., J. Clin. Invest. 81, 414-419 (1998). Marez, A., et al., Biochimie 69, 125-129 (1987). Risau, W., et al., The EMBO J. 7, 959-962 (1988). Rothenthal, R. A., et al., Growth Factor 4, 53-59 (1990)), the above-mentioned nature is utterly different from the natures of these known growth factors. […] A fraction eluted with 0.3 M NaCl in heparin affinity chromatography was subjected to Western blot analysis using an anti-GnT-V antibody to find that the reaction of the anti-GnT-V antibody and the differentiation and growth activity of HUVEC are consistent each other, and the main protein having a differentiation and growth activity of HUVEC present in the fraction is GnT-V itself.
# [1] = glycosyltransferase activity of GnT-V deficient variants; format: biochemical; settings: recombinant variants from Sf21 cells
# From the text: For clarifying which domain of GnT-V is involved in HUVEC growth accelerating activity, a GnT-V lacking variant shown in FIG. 3A was produced. The method of production of a GnT-VΔ188 plasmid is disclosed in a literature of Sasai et al (Sasai, K., et al., Glycobiology (in press)). A transfer plasmid having a GnT-VΔ233 gene was produced by binding a DNA fragment of 1521 base pairs encoding polyhistidine tag at the C-terminal and an amino acid sequence of from Glu234 to Leu741 of human GnT-V, obtained by cutting a GnT-VΔ188 plasmid with EcoRI and EagI, to an EcoRI-EagI site of a transfer vector pAcGP67-A (manufactured by PharMingen). A transfer plasmid having a GnT-VΔ436 gene was produced by binding a DNA fragment of 912 base pairs encoding polyhistidine tag at the C terminal and an amino acid sequence of from Ile437 to Leu741, of human GnT-V, obtained by cutting a GnT-VΔ188 plasmid with EcoRV and EagI, to an EcoRV-EagI site of a transfer vector pAcGP67-A. For production of a recombinant Baculovirus, an insect cell Sf21 was transformed with the transfer plasmid obtained above according to a method known in a literature (Ikeda, Y., et al., J. Biochem. 128, 609-619 (2000)). The recombinant glycosyltransferase derived from the transformed Sf21 cell was purified by Ni^2+-chelating affinity chromatography according to a method disclosed in a literature of Sasaki et al (Sasai, K., et al., Glycobiology (in press)).
Molecule,induction of neovascularization in CAM assay (chicken microvessels),release of FGF-2 from HSPG on HUVEC (HSPG on HUVEC),differentiation and growth of HUVEC (HUVEC growth accelerating activity) (HUVEC),glycosyltransferase activity [1]
FGF-2: fibroblast growth factor-2 [reference compound],induced neovascularization of chicken microvessels,,,
"FSGGPL [FSGGPL peptide, reference compound]",did not have a neovascularization activity,did not affect release of FGF-2,,
KRKRKK [KRKRKK peptide],induced neovascularization likewise,released FGF-2,accelerated growth of HUVEC at the same degree as GnT-VΔ73,
heparin [reference compound],,induced release of FGF-2,,
"GnT-VΔ73: soluble recombinant GnT-V maintaining a glycosyltransferase activity but lacking in transmembrane portion, prepared by a Baculovirus system (protein, UniProt Q09328 74-741, looked up, fragment) AGVMTAYDLKKTLAVLLDNILQRIGKLESKVDNLVVNGTGTNSTNSTTAVPSLVALEKINVADIINGAQEKCVLPPMDGYPHCEGKIKWMKDMWRSDPCYADYGVDGSTCSFFIYLSEVENWCPHLPWRAKNPYEEADHNSLAEIRTDFNILYSMMKKHEEFRWMRLRIRRMADAWIQAIKSLAEKQNLEKRKRKKVLVHLGLLTKESGFKIAETAFSGGPLGELVQWSDLITSLYLLGHDIRISASLAELKEIMKKVVGNRSGCPTVGDRIVELIYIDIVGLAQFKKTLGPSWVHYQCMLRVLDSFGTEPEFNHANYAQSKGHKTPWGKWNLNPQQFYTMFPHTPDNSFLGFVVEQHLNSSDIHHINEIKRQNQSLVYGKVDSFWKNKKIYLDIIHTYMEVHATVYGSSTKNIPSYVKNHGILSGRDLQFLLRETKLFVGLGFPYEGPAPLEAIANGCAFLNPKFNPPKSSKNTDFFIGKPTLRELTSQHPYAEVFIGRPHVWTVDLNNQEEVEDAVKAILNQKIEPYMPYEFTCEGMLQRINAFIEKQDFCHGQVMWPPLSALQVKLAEPGQSCKQVCQESQLICEPSFFQHLNKDKDMLKYKVTCQSSELAKDILVPSFDPKNKHCVFQGDLLLFSCAGAHPRHQRVCPCRDFIKGQVALCKDCL",induced neovascularization of chicken microvessels,released FGF-2,increased in addition amount-dependent manner; also recorded: had an HUVEC growth and differentiation accentuation action,
"GnT-VΔ188: GnT-V lacking variant shown in FIG. 3A, recombinant from Sf21 cells (protein, UniProt Q09328 189-741, looked up, fragment) LSEVENWCPHLPWRAKNPYEEADHNSLAEIRTDFNILYSMMKKHEEFRWMRLRIRRMADAWIQAIKSLAEKQNLEKRKRKKVLVHLGLLTKESGFKIAETAFSGGPLGELVQWSDLITSLYLLGHDIRISASLAELKEIMKKVVGNRSGCPTVGDRIVELIYIDIVGLAQFKKTLGPSWVHYQCMLRVLDSFGTEPEFNHANYAQSKGHKTPWGKWNLNPQQFYTMFPHTPDNSFLGFVVEQHLNSSDIHHINEIKRQNQSLVYGKVDSFWKNKKIYLDIIHTYMEVHATVYGSSTKNIPSYVKNHGILSGRDLQFLLRETKLFVGLGFPYEGPAPLEAIANGCAFLNPKFNPPKSSKNTDFFIGKPTLRELTSQHPYAEVFIGRPHVWTVDLNNQEEVEDAVKAILNQKIEPYMPYEFTCEGMLQRINAFIEKQDFCHGQVMWPPLSALQVKLAEPGQSCKQVCQESQLICEPSFFQHLNKDKDMLKYKVTCQSSELAKDILVPSFDPKNKHCVFQGDLLLFSCAGAHPRHQRVCPCRDFIKGQVALCKDCL",,released FGF-2,had an HUVEC growth and differentiation accentuation action,had a glycosyltransferase activity
"α1,6-fucosyltransferase (protein, UniProt Q9BYC5 1-575, looked up, recombinant α1,6-fucosyltransferase used as control glycosyltransferase) Alpha-(1,6)-fucosyltransferase: MRPWTGSWRWIMLILFAWGTLLFYIGGHLVRDNDHPDHSSRELSKILAKLERLKQQNEDLRRMAESLRIPEGPIDQGPAIGRVRVLEEQLVKAKEQIENYKKQTRNGLGKDHEILRRRIENGAKELWFFLQSELKKLKNLEGNELQRHADEFLLDLGHHERSIMTDLYYLSQTDGAGDWREKEAKDLTELVQRRITYLQNPKDCSKAKKLVCNINKGCGYGCQLHHVVYCFMIAYGTQRTLILESQNWRYATGGWETVFRPVSETCTDRSGISTGHWSGEVKDKNVQVVELPIVDSLHPRPPYLPLAVPEDLADRLVRVHGDPAVWWVSQFVKYLIRPQPWLEKEIEEATKKLGFKHPVIGVHVRRTDKVGTEAAFHPIEEYMVHVEEHFQLLARRMQVDKKRVYLATDDPSLLKEAKTKYPNYEFISDNSISWSAGLHNRYTENSLRGVILDIHFLSQADFLVCTFSSQVCRVAYEIMQTLHPDASANFHSLDDIYYFGGQNAHNQIAIYAHQPRTADEIPMEPGDIIGVAGNHWDGYSKGVNRKLGRTGLYPSYKVREKIETVKYPTYPEAEK",,,did not show HUVEC growth accelerating activity at all,
